Measurements as given in patent US7745390B2, “Antimicrobial peptides” (priority 2005, dated 2010).
Ends that are not written are not given here.

Columns and labels:
E. coli DH5a = assay type: cell-based; conditions: DH5a, pH 7.2
Procedure: (§1) The experiments described above characterizing the activity of granulysin peptides G1-G18 relied on counting bacterial colonies on plates. This assay is quite labor intensive and would not allow evaluation of many different compounds on a number of different microbes. Therefore, we optimized an assay in which the entire procedure could be completed in a single microtiter well. Briefly, peptides are diluted in 10 mM phosphate buffer, pH 7.2 supplemented with 0.03% LB (J. Sambrook, D. W. Russell, Molecular Cloning: A Laboratory Manual (Cold Spring Harbor Laboratory Press, New York, ed. 3, 2001) pg. A2.2, Retrieved from http://openwetware.org/wiki/LB) and 25 μl is added to microtiter wells. Bacteria (25 μl) are added (˜5×10^6 colony forming units/ml) in the same buffer. After a 3-hour incubation at 37° C., 150 μl of LB is added and the plates are incubated overnight. The OD at 600 nm is read on an ELISA plate reader. The minimum inhibitory concentration (MIC) is the lowest concentration allowing no bacterial growth. The IC50 is the concentration of peptide that results in 50% growth compared to the medium.
(§2) We now describe additional peptides and their activity. The peptides have been designed, synthesized, and have been tested for lysis of E. coli and S. typhimurium (gram negative bacteria), B. cereus (gram positive bacterium). Results are shown in Table 2 along with the amino acid sequence of the peptide. Changes from the naturally occurring sequence are underlined. In general, the desired result is lysis of bacteria at low concentration (<1 μM).
(§3) In Table 2, Columns 2-7 are the MIC and IC50 (concentration required for 50% inhibition of growth) for each organism (E. coli, Salmonella, and B. cereus). The MIC (minimum inhibitory concentration) was determined as described above, in a multiwell plate assay. […] L-isomer amino acids are designated by capital letters while D-isomer amino acids are designated by lower case letters.

B. cereus = assay type: cell-based; conditions: pH 7.2
Procedure: as §1, §2, §3

Salmonella = assay type: cell-based, S. typhimurium; conditions: pH 7.2
Procedure: as §1, §2, §3

Sequence | E. coli DH5a MIC (E. coli DH5a) [µM] | IC50 (E. coli DH5a) [nM] | B. cereus MIC (B. cereus) [µM] | IC50 (B. cereus) [nM] | IC50 (Salmonella) [nM] | Salmonella MIC (Salmonella) [µM]
KKVSKKFMKK [Peptide G11.8, KKVSKKFMKK] | >10 | > 10000 | >10 | > 10000 | > 10000 | >10
KKVSKKFMKKGSKKVSKKFMKKGSKKVSKKFMKK [Peptide G11.25] | 0.15 | 100 | 0.15 | 100 | 100 | 0.15
KKVSKKFMKKYQSKVIQGLV [Peptide G12.9] | 1.35 | 490 | 5.6 | 3510 | 850 | 1.4
QKSVSKAATKVSKTGKSKW [Peptide G13.9, QKSVSKAATKVSKTGKSKW] | 1.45 | 890 | >10 | 7700 | > 10000 | >10
QRAVANAATRVARTGRARWRDVARRFMRR [Peptide G8.6] | 0.7 | 450 | 1.5 | 890 | 430 | 0.7
QRAVARAATRVARTGRARW [Peptide G13.6, QRAVARAATRVARTGRARW] | 2.8 | 1650 | >10 | 7700 | 7480 | >10
QRAVARAATRVARTGRARWRDVARNFMRR [Peptide G8.5] | 1.4 | 880 | 1.4 | 880 | 420 | 0.7
QRAVARAATRVARTGRARWRDVARRFMRR [Peptide G8.7] | 1.4 | 850 | 0.7 | 450 | 420 | 0.7
QRAVARAATRVARTGRARWRRVARRFMRR [Peptide G8.10] | 0.63 | 450 | 0.75 | 450 | 210 | 0.35
QRRSSRFMRRYQRVVPRGLV [Peptide G12.24] | 0.8 | 420 | 0.8 | 420 | 700 | 1.4
QRSVSNAATRVCRT [Peptide G10, QRSVSNAATRVCRT, reference compound] | >10 | > 10000 | >10 | > 10000 | > 10000 | >10
QRSVSNAATRVSRTGRSRWRDVSRRFMRR [Peptide G8.3] | 0.7 | 550 | 1.25 | 700 | 450 | 0.67
QRSVSNPPTRVSRPPRSRWRDVSRPPMRR [Peptide G8.16] | 0.7 | 400 | >10 | 7300 | > 10000 | >10
QRSVSRAATRVCRTGRSNW [Peptide G13.10, QRSVSRAATRVCRTGRSNW] | 0.71 | 250 | 5.6 | 3500 | > 10000 | >10
QRSVSRAATRVSRTGRSNWRDVGRRFMRR [Peptide G8.15] | 0.8 | 450 | 0.7 | 450 | 410 | 0.7
QRSVSRAATRVSRTGRSRW [Peptide G13.2, QRSVSRAATRVSRTGRSRW] | 1.37 | 850 | 5.6 | 3400 | 7300 | >10
